# Key:
# [1] = target: T1, murine estrogen receptor-beta (mERβ) (Mus musculus, UniProt O08537); assay: Etoposide-induced apoptosis in HeLa cells stably transfected with mERβ; format: cell-based, human; settings: 10^−8 M, 1 h; etoposide 5×10^−5 M, 6 hour
# T1 construct: expressed in transfected cells
# Description: (§1) CMV promoter alone and CMV promoter-driven cDNA for mERα or mErβ were stably transfected into HeLa cells. […] Cells were trypsinized, pelleted and trypan blue positive cells enumerated.
# (§2) In this experiment, instead of calvaria cells, human HeLa cells which contain undetectable, if any, estrogen receptor were used. HeLa cells were stably transfected with either a CMV promoter-driven cDNA for the murine estrogen receptor-alpha (mERα) or a CMV promoter-driven cDNA for the murine estrogen receptor-beta (mERβ). […] Cells were trypsinized, pelleted and trypan blue positive cells were enumerated.
# MLO-Y4 osteocytic cells [2] = assay: Etoposide-induced apoptosis of MLO-Y4 osteocytic cells, trypan blue uptake; format: cell-based, murine; settings: for antiapoptotic effect on osteocytes after pretreatment with ICI182,780: ICI182,780 10^−7 M, 1 h pretreatment; for inhibition of etoposide-induced apoptosis of osteocytic cell line: MLO-Y4, pretreated 1 h before etoposide, apoptosis after 6 h
# Description: Cells were pretreated with the indicated concentrations of the compounds for 1 hour before the addition of the pro-apoptotic agent etoposide. Apoptosis was determined after 6 hour by trypan blue uptake as described in FIG. 3. * indicates p<0.05 versus etoposide alone, by ANOVA (Student-Newman-Keuls method).
# (§3) MLO-Y4 cells were pretreated for 1 hour with the pure receptor antagonist ICI182,780 (10^−7 M) before the addition of the test agents (10^−8 M). Apoptosis was induced and quantified as described in FIG. 3. * indicates p<0.05 versus etoposide alone, by ANOVA (Student-Newman-Keuls method).
# In this experiment, MLO-Y4 cells were pretreated with the indicated concentrations of the various compounds for 1 h before the addition of the pro-apoptotic agent, etoposide. Apoptosis was determined after 6 h by trypan blue uptake as described in FIG. 3.
# [3] = tested on: extracellular signal regulated kinases (ERKs) 1 and 2; assay: Western blot of phosphorylated ERK1/2 in MLO-Y4 cells; format: cell-based, murine; settings: for activation (phosphorylation) of ERKs: 10^−8 M, 5, 15 or 30 minutes; for ability to activate ERKs in the presence of PD98059: 10^−8 M, 5 minutes, 50 μM PD98059
# Description: (§4) MLO-Y4 osteocytic cells were incubated for 25 minutes in serum -free medium. […] Cell lysates were prepared and proteins were separated by electrophoresis in polyacrylamide gels and transferred to PVDF membranes. Western blotting was performed using a specific antibody recognizing phosphorylated ERKs 1 and 2, followed by reblotting with an antibody recognizing total ERKs. Blots were developed by enhanced chemiluminescence.
# as §4, with “MLO-Y4” for “MLO-Y4 osteocytic”, “serum-free medium in the presence or absence of 50 μM PD98059.” for “serum -free medium.”
# as §4, with “In this experiment, MLO-Y4” for “MLO-Y4”, “serum-free” for “serum -free”, “extracellular signal regulated kinases” for “ERKs”, “extracellular signal regulated kinases.” for “ERKs.”, “chemiluminescence. […] This effect is too rapid to be accounted for by the classical mechanism of estrogen action.” for “chemiluminescence.”
# as §4, with “In this experiment, MLO-Y4” for “MLO-Y4”, “serum-free medium in the presence or absence of 50 μM PD98059.” for “serum -free medium.”, “extracellular signal regulated kinases” for “ERKs”, “extracellular signal regulated kinases.” for “ERKs.”
# [4] = tested on: osteoblastic cells derived from murine calvaria; assay: Etoposide-induced apoptosis of osteoblastic cells, trypan blue uptake; format: cell-based; settings: for anti-apoptotic effect on osteoblastic cells after pretreatment with ICI182,780: test agent 10^−8 M, ICI182,780 10^−7 M, 1 h pretreatment; for Suppression by 10^−8 M Flutamide: suppression of the anti-apoptotic effect by androgen receptor antagonist; for Lowest Effective Concentration: inhibition of etoposide-induced osteoblast apoptosis, 1 hour pretreatment
# Description: Osteoblastic cells derived from murine calvaria were pretreated with the sterols for 1 hour before the addition of the pro-apoptotic agent, etoposide. Apoptosis was determined after 6 hours by trypan blue uptake (Jilka et al, J. Bone and Min. Res. 13:793:802, 1998). * indicates p<0.05 versus etoposide alone, by analysis of variance (ANOVA) (Student-Newman-Keuls method).
# as §3, with “Osteoblastic” for “MLO-Y4”, “cells derived from murine calvaria” for “cells”
# In this experiment, osteoblastic cells were derived from murine calvaria and were pretreated with the sterols for 1 hour before the addition of the pro-apoptotic agent, etoposide.
# In these experiments, cells were pretreated with the indicated concentrations of the various compounds for 1 hour, in the absence or presence of the androgen receptor antagonist flutamide, before the addition of the proapoptotic agent etoposide. Apoptosis was determined after 6 hours by trypan blue uptake as described in FIG. 3.
# MLO-Y4 osteocytic cells [5] = assay: Dexamethasone-induced apoptosis of MLO-Y4 cells with PD98059; format: cell-based, murine; settings: 10^−8 M; PD98059 1 hour pretreatment; dexamethasone 6 hours
# Description: Apoptosis was induced by incubation with the pro-apoptotic agent dexamethasone for 6 hour and quantified as described in FIG. 3. * indicates p<0.05 versus the corresponding control group without dexamethasone, by ANOVA (Student-Newman-Keuls method).
# That indeed the anti-apoptotic effect of all the compounds tested herein was mediated via activation of ERKs was established by the results of the experiments shown in FIG. 10. […] Apoptosis was induced by incubation with the pro-apoptotic agent dexamethasone for 6 hours and quantified as described in FIG. 3.
# wild type HeLa cells = assay: Etoposide-induced apoptosis in wild type HeLa cells; format: cell-based, human; settings: 10^−8 M, 1 h; etoposide 5×10^−5 M, 6 hour
# Description: as §1, §2
# osteoclasts = settings: increased from approximately 0.5%; cited from earlier work
# [6] = rats, intravenously; cited from earlier work
# [7] = for at least four years; cited from earlier work
# [8] = after one year of treatment; cited from earlier work
# osteoblasts = settings: intermittent administration in mice; from 1.7-2.2%; cited from earlier work
# T1 sequence (O08537 whole entry): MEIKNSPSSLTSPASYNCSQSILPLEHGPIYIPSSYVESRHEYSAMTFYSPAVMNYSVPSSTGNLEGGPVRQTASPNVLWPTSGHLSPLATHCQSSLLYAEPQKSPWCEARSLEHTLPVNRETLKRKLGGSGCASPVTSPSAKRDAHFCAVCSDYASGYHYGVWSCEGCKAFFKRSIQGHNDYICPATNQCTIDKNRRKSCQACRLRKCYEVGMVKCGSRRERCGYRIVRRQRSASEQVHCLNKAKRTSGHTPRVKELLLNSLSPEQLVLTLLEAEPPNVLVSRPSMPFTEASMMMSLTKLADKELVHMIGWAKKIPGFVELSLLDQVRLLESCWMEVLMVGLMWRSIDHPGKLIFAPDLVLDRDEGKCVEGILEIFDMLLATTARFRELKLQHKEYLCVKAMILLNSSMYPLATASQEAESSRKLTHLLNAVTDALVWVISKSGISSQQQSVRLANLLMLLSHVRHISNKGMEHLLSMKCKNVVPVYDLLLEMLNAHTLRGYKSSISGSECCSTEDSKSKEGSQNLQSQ
molecule,measurement,setting,value
C[C@]12CC[C@@H]3c4ccc(O)cc4CC[C@H]3[C@@H]1CC[C@H]2O [17α-estradiol],inhibition of etoposide-induced apoptosis in HeLa cells transfected with estrogen receptor β,[1],potently inhibited
same,"antiapoptotic effect on osteocytes after pretreatment with ICI182,780",MLO-Y4 osteocytic cells [2],abrogated
same,inhibition of etoposide-induced apoptosis of osteocytic cell line,MLO-Y4 osteocytic cells [2],dose-dependently inhibited
same,activation (phosphorylation) of ERKs,[3],activated
same,ability to activate ERKs in the presence of PD98059,[3],abrogated
same,"anti-apoptotic effect on osteoblastic cells after pretreatment with ICI182,780",[4],abrogated
same,anti-apoptotic effect after pretreatment with PD98059,MLO-Y4 osteocytic cells [5],prevented the anti-apoptotic effect
same,effect on etoposide-induced apoptosis of wild type HeLa cells,wild type HeLa cells,none of the three compounds had any effect
C[C@]12CC[C@@H]3c4ccc(O)cc4CC[C@H]3[C@@H]1CC[C@@H]2O [17β-estradiol],inhibition of etoposide-induced apoptosis in HeLa cells transfected with estrogen receptor β,[1],potently inhibited
same,"antiapoptotic effect on osteocytes after pretreatment with ICI182,780",MLO-Y4 osteocytic cells [2],abrogated
same,inhibition of etoposide-induced apoptosis of osteocytic cell line,MLO-Y4 osteocytic cells [2],dose-dependently inhibited
same,activation (phosphorylation) of ERKs,[3],activated
same,ability to activate ERKs in the presence of PD98059,[3],abrogated
same,inhibition of etoposide-induced osteoblastic cell apoptosis,"[4]; pretreated 1 hour before etoposide, apoptosis after 6 hours by trypan blue uptake",prevented apoptosis
same,"anti-apoptotic effect on osteoblastic cells after pretreatment with ICI182,780",[4],abrogated
same,apoptosis of osteoclasts,osteoclasts,≤ 2.7%
same,anti-apoptotic effect after pretreatment with PD98059,MLO-Y4 osteocytic cells [5],prevented the anti-apoptotic effect
same,effect on etoposide-induced apoptosis of wild type HeLa cells,wild type HeLa cells,none of the three compounds had any effect
"C[C@]12CCC(=O)C=C1CC[C@@H]1[C@@H]2CC[C@]2(C)C(=O)CC[C@@H]12 [4-androstene-3,17-dione]",Suppression by 10^−8 M Flutamide,[4],yes
"CC(=O)N[C@@H](CS)C(=O)O [N-acetylcysteine, acetamido-mercaptopropionic acid]",LD50,[6],1140 mg/kg
[F-].[Na+] [sodium fluoride],increase in vertebral bone mass,[7],10 % a year
CC(O)(P(=O)(O)O)P(=O)(O)O [etidronate],reduction of resorption depth in human iliac trabecular bone,[8],~30%
C[C@]12CC[C@H]3[C@@H](CCC4=CC(=O)CC[C@@]43C)[C@@H]1CC[C@@H]2O [Testosterone],Suppression by 10^−8 M Flutamide,[4],yes
C[C@]12CC[C@H]3[C@@H](CC=C4C[C@@H](O)CC[C@@]43C)[C@@H]1CC[C@@H]2O [5-androstene-3β-17_-diol],Lowest Effective Concentration,[4],10^−8 M
same,Suppression by 10^−8 M Flutamide,[4],yes
C[C@]1(O)CC[C@H]2[C@@H]3CCC4=CC(=O)CCC4=C3C=C[C@@]21C [RU1881],Lowest Effective Concentration,[4],10^−8 M
same,Suppression by 10^−8 M Flutamide,[4],yes
"C[C@]12CC[C@H](OS(=O)(=O)O)CC1=CC[C@@H]1[C@@H]2CC[C@]2(C)C(=O)CC[C@@H]12 [Dehydroisoandrosterone-3-sulfate (DHES), Dehydroisoandrosterone-3-sulfate]",Lowest Effective Concentration,[4],10^−8 M
same,Suppression by 10^−8 M Flutamide,[4],no*
C[C@]12CCC(=O)C[C@@H]1CC[C@@H]1[C@@H]2CC[C@]2(C)[C@@H](O)CC[C@@H]12 [5-β-dihydrotestosterone],Lowest Effective Concentration,[4],10^−10 M
same,Suppression by 10^−8 M Flutamide,[4],yes
C[C@]12CCC(=O)C[C@@H]1CC[C@@H]1[C@@H]2CC[C@]2(C)[C@@H](O)CC[C@@H]12 [5-α-dihydrotestosterone],Lowest Effective Concentration,[4],10^−9 M
same,Suppression by 10^−8 M Flutamide,[4],yes
"PTH: parathyroid hormone, agent known for its role in calcium homeostasis (protein, UniProt P01270 32-115, looked up, Parathyroid hormone, parathyroid hormone, agent known for its role in calcium homeostasis) Parathyroid hormone: SVSEIQLMHNLGKHLNSMERVEWLRKKLQDVHNFVALGAPLAPRDAGSQRPRKKEDNVLVESHEKSLGEADKADVNVLTKAKSQ",prevalence of osteoblast apoptosis,osteoblasts,0.1-0.4%
